Assay [1] concerns guinea pig tracheal rings. Description: Organ bath muscle force, TEA-induced contraction of guinea pig tracheal rings (Examples 1, 4, 13). As to conditions: 10 mM TEA; 100 μM niflumic acid. Here is the method: Epithelial denuded guinea pig tracheal rings were suspended in organ baths under 1 g resting tension with continuous digital recordings of muscle force. In separate studies, guinea pig airway smooth muscle cells were enzymatically dispersed and cultured.
Human muscle tissue was acquired from excess lung airways trimmed during surgery from healthy lung transplant donors. Acquired tissue was stored overnight at […]. Airway smooth muscle contractions measured ex vivo in organ baths were performed as previously described (Gallos et al., 2008; Gallos et al., 2009, Gallos et al., 2011; Gleason et al., 2010; Yim et al., 2011; Mitzuta et al., 2008). Closed guinea pig tracheal rings or strips of human airway smooth muscle (tracheal or main stem bronchus) were suspended in organ baths, which had 95% oxygen constantly perfusing through Dulbecco's Modified Eagle Medium. Rings were cut on the cartilaginous borders of the smooth muscle. The epithelial layer was dissected under microscopic assistance. Briefly, tissues were suspended in a water-jacketed (37° C.) 2-ml organ bath (Radnoti Glass Technology, Monrovia, Calif.) and attached to a Grass FT03 force transducer (Grass Telefactor, West Warwick, R.I.) coupled to a computer via BioPac hardware and Acqknowledge 7.3.3 software (Biopac Systems, Goleta, Calif.). Kreb's-Henseleit (KH) buffer was continuously bubbled with 95% oxygen and 5% carbon dioxide and tissues were allowed to equilibrate at 1 g (guinea pig) or 1.5 g (human) isotonic force for 1 hour with fresh KH buffer changes every 15 minutes.
Following equilibration, in guinea pig experiments, the capsaicin analog N-vanillylnonanamide (10 μM final) was added to the organ baths to first activate and then deplete nonadrenergic, noncholinergic nerves. […]. In experiments with human tissue, no vanillylnonanamide pretreatment was done. To avoid bias between treatment groups, tissues were contracted to individually calculated EC50 values for acetylcholine and tissues with similar Emax values were randomly assigned to treatments within individual experiments. Following extensive KH buffer changes (8-9 times) tissues were allowed to stabilize at isotonic resting tension (about 1.0 g). To remove confounding effects of other procontractile pathways, each bath received a complement of antagonists 20 minutes prior to subsequent contractile challenge. The antagonists included pyrilamine (10 μM; H1 histamine receptor antagonist), and tetrodotoxin (1 μM; blocker of endogenous cholinergic or C-fiber neuronal effects) in guinea pig experiments or pyrilamine and 10 μM MK571 (leukotriene receptor antagonist) in human tissue experiments. […]
Airway smooth muscle contractions measured ex vivo in organ baths were performed as set forth above. […]

Assay [2] deals with guinea pig tracheal rings. As to the kind of experiment: Ex vivo airway smooth muscle force, prevention or relaxation of a contraction (Example 5). The conditions noted are these: solo therapy; vs vehicle. Here is the method: The chloride channel blocker NPPB and the chloride transporter blocker bumetanide were evaluated for their ability to prevent an initial contraction (n=5) (FIG. 23A) or to relax an existing contraction (n=6) (FIG. 23B).
As a proof of concept for chloride channel blockade in general, another chloride channel blocker, 5-nitro-2-(3-phenylpropylamino)-benzoic acid (NPPB) was used in an ex vivo guinea pig airway smooth muscle model.

As to `O=C(O)c1cccnc1Nc1cccc(C(F)(F)F)c1` [niflumic acid], the “relaxation of TEA-induced contraction” value in assay [1] is reported as 82.5%.
Consider `CCCCNc1cc(C(=O)O)cc(S(N)(=O)=O)c1Oc1ccccc1` [bumetanide], for which the “relaxation of an existing contraction” value in assay [2] is “effective in relaxing an existing contraction”.
